Source: the supplement of paper PMC10307832

Assays:
Assay in all cases: relative viability (nuclei count vs DMSO), 5 days (fraction); higher = more cells survive
IA-LM = test system: IA-LM
Procedure, shortened: (§1)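 For relative viability, nuclei counts in treated wells were divided by those in vehicle wells. Lung cancer cell lines had been pin-tool dosed in 1536-well plates the day after seeding and cultured for 5 days, then fixed and stained in one step (final 0.05% Triton X-100, 1% formaldehyde, 1 ug/ml Hoechst) and imaged at 4×. Doses were one drug alone or a fixed anchor-drug dose plus five library-drug doses (not always all listed) in √10 steps, and values are duplicate-plate medians.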

NCI-H520 = test system: NCI-H520
Procedure, shortened: as §1

EBC-1 = test system: EBC-1
Procedure, shortened: as §1

NCI-H1299 = test system: NCI-H1299
Procedure, shortened: as §1

Calu-6 = test system: Calu-6
Procedure, shortened: as §1

NCI-H838 = test system: NCI-H838
Procedure, shortened: as §1

NCI-H1651 = test system: NCI-H1651
Procedure, shortened: as §1

A549 = test system: A549
Procedure, shortened: as §1

NCI-H1703 = test system: NCI-H1703
Procedure, shortened: as §1

RERF-LC-KJ = test system: RERF-LC-KJ
Procedure, shortened: as §1

NCI-H1944 = test system: NCI-H1944
Procedure, shortened: as §1

Q: How did the relative viability (IA-LM; first compound 0.01 µM) turn out when `O=c1cc(N2CCOCC2)oc2c(-c3cccc4c3sc3ccccc34)cccc12` + CC1(C)CCC(c2ccc(Cl)cc2)=C(CN2CCN(c3ccc(C(=O)NS(=O)(=O)c4ccc(N[C@H](CCN5CCOCC5)CSc5ccccc5)c(S(=O)(=O)C(F)(F)F)c4)cc3)CC2)C1 [Navitoclax] (partner 0.5 µM) was run?
A: 0.909

Q: What about the relative viability (IA-LM; first compound 0.03162 µM) of the same molecule?
A: 0.667

Q: And the relative viability (IA-LM; first compound 0.1 µM)?
A: 0.902

Q: What about the relative viability (IA-LM; first compound 0.3162 µM) of the same molecule?
A: 0.561

Q: And the relative viability (IA-LM; first compound 1 µM)?
A: 0.876

Q: And the relative viability (NCI-H520; first compound 0.01 µM)?
A: 1.11

Q: And the relative viability (NCI-H520; first compound 0.03162 µM)?
A: 1.14

Q: And the relative viability (NCI-H520; first compound 0.1 µM)?
A: 1.18

Q: And the relative viability (NCI-H520; first compound 0.3162 µM)?
A: 1.05

Q: And the relative viability (NCI-H520; first compound 1 µM)?
A: 1.22

Q: And the relative viability (EBC-1; first compound 0.01 µM)?
A: 0.469

Q: And the relative viability (EBC-1; first compound 0.03162 µM)?
A: 0.377

Q: And the relative viability (EBC-1; first compound 0.1 µM)?
A: 0.353

Q: And the relative viability (EBC-1; first compound 0.3162 µM)?
A: 0.408

Q: And the relative viability (EBC-1; first compound 1 µM)?
A: 0.406

Q: And the relative viability (NCI-H1299; first compound 0.01 µM)?
A: 1.02

Q: And the relative viability (NCI-H1299; first compound 0.03162 µM)?
A: 1.06

Q: And the relative viability (NCI-H1299; first compound 0.1 µM)?
A: 1.08

Q: And the relative viability (NCI-H1299; first compound 0.3162 µM)?
A: 1

Q: What about the relative viability (NCI-H1299; first compound 1 µM) of the same molecule?
A: 1.04

Q: And the relative viability (Calu-6; first compound 0.01 µM)?
A: 0.795

Q: What about the relative viability (Calu-6; first compound 0.03162 µM) of the same molecule?
A: 0.786

Q: What about the relative viability (Calu-6; first compound 0.1 µM) of the same molecule?
A: 0.967

Q: What about the relative viability (Calu-6; first compound 0.3162 µM) of the same molecule?
A: 0.86

Q: And the relative viability (Calu-6; first compound 1 µM)?
A: 0.933

Q: And the relative viability (NCI-H838; first compound 0.01 µM)?
A: 1.17

Q: And the relative viability (NCI-H838; first compound 0.03162 µM)?
A: 1.13

Q: And the relative viability (NCI-H838; first compound 0.1 µM)?
A: 1.13

Q: And the relative viability (NCI-H838; first compound 0.3162 µM)?
A: 1.1

Q: And the relative viability (NCI-H838; first compound 1 µM)?
A: 1.1

Q: And the relative viability (NCI-H1651; first compound 0.01 µM)?
A: 1.07

Q: What about the relative viability (NCI-H1651; first compound 0.03162 µM) of the same molecule?
A: 0.997

Q: And the relative viability (NCI-H1651; first compound 0.1 µM)?
A: 1.01

Q: And the relative viability (NCI-H1651; first compound 0.3162 µM)?
A: 0.991

Q: And the relative viability (NCI-H1651; first compound 1 µM)?
A: 0.927

Q: And the relative viability (A549; first compound 0.01 µM)?
A: 1.22

Q: What about the relative viability (A549; first compound 0.03162 µM) of the same molecule?
A: 1.17

Q: What about the relative viability (A549; first compound 0.1 µM) of the same molecule?
A: 1.28

Q: And the relative viability (A549; first compound 0.3162 µM)?
A: 1.23

Q: What about the relative viability (A549; first compound 1 µM) of the same molecule?
A: 1.2

Q: And the relative viability (NCI-H1703; first compound 0.01 µM)?
A: 1.34

Q: What about the relative viability (NCI-H1703; first compound 0.03162 µM) of the same molecule?
A: 1.28

Q: And the relative viability (NCI-H1703; first compound 0.1 µM)?
A: 1.24

Q: And the relative viability (NCI-H1703; first compound 0.3162 µM)?
A: 1.07

Q: What about the relative viability (NCI-H1703; first compound 1 µM) of the same molecule?
A: 1.01

Q: And the relative viability (RERF-LC-KJ; first compound 0.01 µM)?
A: 0.926

Q: What about the relative viability (RERF-LC-KJ; first compound 0.03162 µM) of the same molecule?
A: 1.2

Q: And the relative viability (RERF-LC-KJ; first compound 0.1 µM)?
A: 0.98

Q: What about the relative viability (RERF-LC-KJ; first compound 0.3162 µM) of the same molecule?
A: 0.85

Q: And the relative viability (RERF-LC-KJ; first compound 1 µM)?
A: 0.974

Q: And the relative viability (NCI-H1944; first compound 0.01 µM)?
A: 1.03

Q: And the relative viability (NCI-H1944; first compound 0.03162 µM)?
A: 1.1

Q: What about the relative viability (NCI-H1944; first compound 0.1 µM) of the same molecule?
A: 1.07

Q: What about the relative viability (NCI-H1944; first compound 0.3162 µM) of the same molecule?
A: 1.09

Q: And the relative viability (NCI-H1944; first compound 1 µM)?
A: 1.05

Q: What does the source list for `CCN(CC)CCCCNc1ncc2cc(-c3cc(OC)cc(OC)c3)c(NC(=O)NC(C)(C)C)nc2n1` + CC1(C)CCC(c2ccc(Cl)cc2)=C(CN2CCN(c3ccc(C(=O)NS(=O)(=O)c4ccc(N[C@H](CCN5CCOCC5)CSc5ccccc5)c(S(=O)(=O)C(F)(F)F)c4)cc3)CC2)C1 [Navitoclax] (partner 0.5 µM)?
A: relative viability (IA-LM; first compound 0.01 µM): 0.746; relative viability (IA-LM; first compound 0.03162 µM): 0.882; relative viability (IA-LM; first compound 0.1 µM): 0.969; relative viability (IA-LM; first compound 0.3162 µM): 0.73; relative viability (IA-LM; first compound 1 µM): 0.866; relative viability (NCI-H520; first compound 0.01 µM): 1.08; relative viability (NCI-H520; first compound 0.03162 µM): 1.08; relative viability (NCI-H520; first compound 0.1 µM): 1.31; relative viability (NCI-H520; first compound 0.3162 µM): 1.09; relative viability (NCI-H520; first compound 1 µM): 0.419; relative viability (EBC-1; first compound 0.01 µM): 0.339; relative viability (EBC-1; first compound 0.03162 µM): 0.469; relative viability (EBC-1; first compound 0.1 µM): 0.442; relative viability (EBC-1; first compound 0.3162 µM): 0.357; relative viability (EBC-1; first compound 1 µM): 0.37; relative viability (NCI-H1299; first compound 0.01 µM): 1.08; relative viability (NCI-H1299; first compound 0.03162 µM): 1.01; relative viability (NCI-H1299; first compound 0.1 µM): 1.08; relative viability (NCI-H1299; first compound 0.3162 µM): 1.09; relative viability (NCI-H1299; first compound 1 µM): 1.01; relative viability (Calu-6; first compound 0.01 µM): 0.729; relative viability (Calu-6; first compound 0.03162 µM): 0.946; relative viability (Calu-6; first compound 0.1 µM): 1.03; relative viability (Calu-6; first compound 0.3162 µM): 1.01; relative viability (Calu-6; first compound 1 µM): 0.748; relative viability (NCI-H838; first compound 0.01 µM): 1.18; relative viability (NCI-H838; first compound 0.03162 µM): 1.12; relative viability (NCI-H838; first compound 0.1 µM): 1.44; relative viability (NCI-H838; first compound 0.3162 µM): 1.07; relative viability (NCI-H838; first compound 1 µM): 0.809; relative viability (NCI-H1651; first compound 0.01 µM): 0.983; relative viability (NCI-H1651; first compound 0.03162 µM): 1.09; relative viability (NCI-H1651; first compound 0.1 µM): 1.25; relative viability (NCI-H1651; first compound 0.3162 µM): 1.23; relative viability (NCI-H1651; first compound 1 µM): 1.03; relative viability (A549; first compound 0.01 µM): 1.16; relative viability (A549; first compound 0.03162 µM): 1.24; relative viability (A549; first compound 0.1 µM): 1.53; relative viability (A549; first compound 0.3162 µM): 1.23; relative viability (A549; first compound 1 µM): 1.07; relative viability (NCI-H1703; first compound 0.01 µM): 1.07; relative viability (NCI-H1703; first compound 0.1 µM): 1.04; relative viability (NCI-H1703; first compound 0.3162 µM): 1.32; relative viability (NCI-H1703; first compound 1 µM): 0.925; relative viability (RERF-LC-KJ; first compound 0.01 µM): 0.996; relative viability (RERF-LC-KJ; first compound 0.03162 µM): 0.851; relative viability (RERF-LC-KJ; first compound 0.1 µM): 0.925; relative viability (RERF-LC-KJ; first compound 0.3162 µM): 1.09; relative viability (RERF-LC-KJ; first compound 1 µM): 0.997; relative viability (NCI-H1944; first compound 0.01 µM): 1.18; relative viability (NCI-H1944; first compound 0.03162 µM): 1.02; relative viability (NCI-H1944; first compound 0.1 µM): 1.08; relative viability (NCI-H1944; first compound 0.3162 µM): 1.09; relative viability (NCI-H1944; first compound 1 µM): 1.02
